Literature values in article PMC3320885 (PLoS ONE, 2012).

What was measured:
[1] = system: receptor tyrosine kinase PDGFR; parameters: method as in PMID 12543790, PMID 17114238
[2] = system: receptor tyrosine kinase Kit; parameters: method as in PMID 12543790, PMID 17114238

COc1cc(Nc2c(C#N)cnc3cc(OCCCN4CCN(C)CC4)c(OC)cc23)c(Cl)cc1Cl [bosutinib]
activity against PDGFR [1]: devoid of activity | effect of V299L mutation (BCR-Abl V299L mutant): confer resistance | activity against Kit [2]: devoid of activity | effect of Y253F mutation on inhibition (BCR-Abl Y253F mutant): not affected | effect of T315I mutation (BCR-Abl T315I mutant): confer resistance | effect of Q252H mutation on inhibition (BCR-Abl Q252H mutant): not affected
